The results in this text go back to US20240067693A1, “POLYPEPTIDES AND USES THEREOF” (MEDIMMUNE LIMITED, priority 2020, published 2024).

Numbered stars: 1 amine (or outer) side, 2 acyl side, 3 side chain; on linkers, the order of the positions; unused ones are H or OH. Bridge positions count the residues as written; N and C are the ends. Square brackets hold non-standard residues; d marks the D form. Side chains are listed from the residue outwards. Peptide text beside a SMILES is read from it. * marks the point of attachment. C20 diacid = O=C(O)CCCCCCCCCCCCCCCCCCC(=O)*; C18 diacid = O=C(O)CCCCCCCCCCCCCCCCC(=O)*; γGlu = O=C(O)[C@H](CCC(=O)[*:2])N[*:1]; Aib = CC(C)(N)C(=O)O

Data set [1] relates to lean rats. The experiment in a line: Rat acute food intake study. Format: in vivo. To be noted: lean male Sprague Dawley rats, 20 nmol/kg subcutaneously. The method, boiled down: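 Male Sprague Dawley rats (n=7/group), fasted 6 h, received 20 nmol/kg test compound or 60 nmol/kg pramlintide subcutaneously 30 min before food return at dark onset. Food intake recorded automatically in home cages over 3 days, binned hourly and analysed as cumulative dark-period intake; body weight taken daily.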

Data set [2] is described as follows: in vivo. To be noted: male, Sprague-Dawley, rat, 20 nmol/kg.
In data set [3] the target is T1, rat amylin receptor (calcitonin receptor co-expressed with receptor activity modifying protein, RAMP3) (Rat AMYR3) (Rattus norvegicus, UniProt P32214+Q9JJ73).
T1 construct: expressed in transfected cells
T1 sequence (P32214 25-516): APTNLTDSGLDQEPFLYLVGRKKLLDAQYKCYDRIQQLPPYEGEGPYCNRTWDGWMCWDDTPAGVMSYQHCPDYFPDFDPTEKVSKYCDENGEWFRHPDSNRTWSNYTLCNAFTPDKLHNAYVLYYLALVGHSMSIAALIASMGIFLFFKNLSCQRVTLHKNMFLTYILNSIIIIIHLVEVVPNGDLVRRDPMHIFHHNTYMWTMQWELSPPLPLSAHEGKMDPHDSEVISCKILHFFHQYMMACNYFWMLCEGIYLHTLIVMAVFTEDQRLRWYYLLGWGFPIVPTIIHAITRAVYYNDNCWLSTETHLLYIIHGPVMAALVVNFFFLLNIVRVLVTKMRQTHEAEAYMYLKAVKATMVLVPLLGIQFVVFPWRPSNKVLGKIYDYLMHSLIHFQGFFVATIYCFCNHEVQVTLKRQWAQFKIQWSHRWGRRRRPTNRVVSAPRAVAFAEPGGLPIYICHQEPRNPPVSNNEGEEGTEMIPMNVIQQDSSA
T1 sequence (Q9JJ73 23-147 partner): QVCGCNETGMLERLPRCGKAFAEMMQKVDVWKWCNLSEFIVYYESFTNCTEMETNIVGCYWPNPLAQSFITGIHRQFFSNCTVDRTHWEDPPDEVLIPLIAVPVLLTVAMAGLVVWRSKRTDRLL
Description: cAMP production in HEK cells with stable recombinant expression of rat amylin receptor (Rat AMYR3). The format is cell-based. To be noted: assay buffer with 0.1% BSA. The method, boiled down:
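EC50 values come from 4-parameter logistic fits of HTRF cAMP signal, normalised to maximal calcitonin or amylin effect. Peptides were tested in duplicate for 30 min at RT in IBMX-containing (0.5 mM) BSA/HEPES buffer pH 7.4 on stable 1321N1 (human CTR, AMYR3) or HEK (rat CTR, AMYR3) lines.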
In general terms: Changes in cAMP serve as a functional read-out for many G protein-coupled receptors.

Usually half-life stands for the time in which the quantity being followed falls by half. Broadly, the EC50 is the midpoint of the concentration-response curve. For the compound `CC[C@H](C)[C@H](NC(=O)[C@@H]1CCCN1C(=O)CNC(=O)[C@H](Cc1ccccc1)NC(=O)[C@H](CC(N)=O)NC(=O)C(C)(C)NC(=O)[C@H](CO)NC(=O)[C@H](CO)NC(=O)[C@H](Cc1c[nH]cn1)NC(=O)[C@@H](NC(=O)[C@H](CC(C)C)NC(=O)[C@H](Cc1ccccc1)NC(=O)[C@H](CC(N)=O)NC(=O)[C@H](C)NC(=O)[C@H](CC(C)C)NC(=O)[C@H](CCCNC(=N)N)NC(=O)[C@H](CCC(N)=O)NC(=O)[C@@H](NC(=O)[C@H](C)NC(=O)[C@@H]1CSSC[C@H](NC(=O)[C@H](CCCCN)NC(=O)[C@@H](N)CCCCNC(=O)CC[C@H](NC(=O)CCCCCCCCCCCCCCCCC(=O)O)C(=O)O)C(=O)N[C@@H](CC(N)=O)C(=O)N[C@@H]([C@@H](C)O)C(=O)N[C@@H](C)C(=O)N[C@@H]([C@@H](C)O)C(=O)N1)[C@@H](C)O)C(C)C)C(=O)N[C@@H](CC(C)C)C(=O)N1CCC[C@H]1C(=O)N1CCC[C@H]1C(=O)N[C@H](C(=O)N[C@@H](Cc1c[nH]cn1)C(=O)N[C@H](C(=O)NCC(=O)N[C@@H](CO)C(=O)N[C@@H](CC(N)=O)C(=O)N[C@H](C(=O)N[C@@H](Cc1ccc(O)cc1)C(N)=O)[C@@H](C)O)C(C)C)[C@@H](C)O` [Peptide 40, K(γE-C18diacid)K[CNTATC]ATQRLANFLVHSS(Aib)NFGPILPPTHVGSNTY-amide] (H-K([γGlu-C18 diacid])KCNTATCATQRLANFLVHSS[Aib]NFGPILPPTHVGSNTY-NH2; disulfide 3-8), in data set [1], the “Cummulative food intake (% vehicle treated intake) At 12 h” value was 60.7 % vehicle treated intake, the “Cummulative food intake (% vehicle treated intake) At 24 h” value is 51.8 % vehicle treated intake and the “Cummulative food intake (% vehicle treated intake) At 48 h” value is 72.4 % vehicle treated intake. Also, in data set [2] (iv), the half-life is 7.4 h. In data set [2] (sc), this compound showed a half-life of 8.1 h. The EC50 in data set [3] amounted to 12 pM.

As to `CC[C@H](C)[C@H](NC(=O)[C@@H]1CCCN1C(=O)CNC(=O)[C@H](Cc1ccccc1)NC(=O)[C@H](CC(N)=O)NC(=O)[C@H](CC(N)=O)NC(=O)[C@H](CO)NC(=O)[C@H](CO)NC(=O)[C@H](Cc1c[nH]cn1)NC(=O)[C@@H](NC(=O)[C@H](CC(C)C)NC(=O)[C@H](Cc1ccccc1)NC(=O)[C@H](CC(N)=O)NC(=O)[C@H](C)NC(=O)[C@H](CC(C)C)NC(=O)[C@H](CCCNC(=N)N)NC(=O)[C@H](CCC(N)=O)NC(=O)[C@@H](NC(=O)[C@H](C)NC(=O)[C@@H]1CSSC[C@H](NC(=O)[C@H](CCCCN)NC(=O)CC[C@H](NC(=O)CCCCCCCCCCCCCCCCCCC(=O)O)C(=O)O)C(=O)N[C@@H](CC(N)=O)C(=O)N[C@@H]([C@@H](C)O)C(=O)N[C@@H](C)C(=O)N[C@@H]([C@@H](C)O)C(=O)N1)[C@@H](C)O)C(C)C)C(=O)N[C@@H](CC(C)C)C(=O)N1CCC[C@H]1C(=O)N1CCC[C@H]1C(=O)N[C@H](C(=O)N[C@@H](CC(N)=O)C(=O)N[C@H](C(=O)NCC(=O)N[C@@H](CO)C(=O)N[C@@H](CC(N)=O)C(=O)N[C@H](C(=O)N[C@@H](Cc1ccc(O)cc1)C(N)=O)[C@@H](C)O)C(C)C)[C@@H](C)O` [Peptide 112] ({C20 diacid-γGlu}-KCNTATCATQRLANFLVHSSNNFGPILPPTNVGSNTY-NH2; disulfide 2-7), in data set [1], the “Cummulative food intake (% vehicle treated intake) At 12 h” value is 15.8 % vehicle treated intake, the “Cummulative food intake (% vehicle treated intake) At 24 h” value amounted to 15.9 % vehicle treated intake and the “Cummulative food intake (% vehicle treated intake) At 48 h” value is recorded as 22.1 % vehicle treated intake. Besides, the half-life in data set [2] (iv) is 11.8 h. This compound also gave a half-life in data set [2] (sc) of 19 h. In data set [3], the EC50 amounted to 16 pM.
